From patent US20120309821A1, “Use of epigallocatechin-3-gallate for immune regulation” (NATIONAL DEFENSE MEDICAL CENTER, priority 2011, published 2012) come the findings set out here.

Assay [1] relates to superoxide anion. Briefly: Kidney in-situ ROS production by dihydroethidium (DHE) labeling. Conditions: 120 mg/kg by gavage daily, week 34. It counts as in vivo, mouse. The method, then: Female NZB/W F1 mice were purchased from the Animal Center of the National Taiwan University (Taipei, Taiwan, ROC) and, at 12 weeks of age, were divided into two groups, one of which was given normal saline and served as the disease control, while the other was given 120 mg/kg body weight of EGCG (Ryss Lab, Inc., CA, USA) (this dose is a slight modification of those used in previous in vivo studies) by gavage daily till sacrificed at 34-weeks-old. 8-Week-old NZB/W F1 female mice (prior to onset of autoantibody production) were used as normal controls. Urine samples were collected in metabolic cages every 2 weeks and urine protein levels were measured, and serum samples were used to measure serum levels of blood urea nitrogen (BUN) and creatinine (Cr) as described previously (Ka, S. M. et al. Decoy receptor 3 ameliorates an autoimmune crescentic glomerulonephritis model in mice. J Am Soc Nephrol 18:2473-2485; 2007). […] Kidney in situ superoxide anion production was determined by dihydroethidium (DHE) labeling. Fluorescent images were quantified by counting the percentage of positive nuclei in the total nuclei per kidney cross-section. Superoxide anion levels in serum and kidney tissues were measured as described previously and the results expressed as reactive luminescence units (RLU) per 15 min per milligram dry weight (i.e., RLU/15 min/mg dry weight).

For assay [2], the system named is caspase-1. Nature of the assay: Western blot of caspase-1 p20 in kidney. The format is in vivo, mouse. Conditions: 120 mg/kg by gavage daily, week 34. The protocol: (§1) Female NZB/W F1 mice were purchased from the Animal Center of the National Taiwan University (Taipei, Taiwan, ROC) and, at 12 weeks of age, were divided into two groups, one of which was given normal saline and served as the disease control, while the other was given 120 mg/kg body weight of EGCG (Ryss Lab, Inc., CA, USA) (this dose is a slight modification of those used in previous in vivo studies) by gavage daily till sacrificed at 34-weeks-old. 8-Week-old NZB/W F1 female mice (prior to onset of autoantibody production) were used as normal controls. Urine samples were collected in metabolic cages every 2 weeks and urine protein levels were measured, and serum samples were used to measure serum levels of blood urea nitrogen (BUN) and creatinine (Cr) as described previously (Ka, S. M. et al. Decoy receptor 3 ameliorates an autoimmune crescentic glomerulonephritis model in mice. J Am Soc Nephrol 18:2473-2485; 2007). All animal experiments were performed upon the ethical approval of the Institutional Animal Care and Use Committee of the National Defense Medical Center, Taiwan and according to the ethical rules in the NIH Guide for the Care and Use of Laboratory Animals. […] Antibodies to histone H3 (Cell Signaling) or β-actin (Santa Cruz) were used as internal controls for the nuclear and cytosolic target proteins, respectively.
Background: In western blotting, separated proteins are transferred to a membrane and probed.

The subject of assay [3] is IgG immune complex deposition in the glomerulus. Nature of the assay: Kidney IgG immune complex deposits by immunofluorescence. The format is in vivo, mouse. Conditions: 120 mg/kg by gavage daily; week 34; disease control vs EGCG-treated mice. The protocol: as §1, with “Animals. For immune complex detection, frozen renal tissues were prepared and incubated with fluorescein isothiocyanate (FITC)-conjugated goat anti-mouse IgG antibodies (Cappel, N.C., USA).” for “Animals.”, “Scoring of staining was recorded.” for “Antibodies to histone H3 (Cell Signaling) or β-actin (Santa Cruz) were used as internal controls for the nuclear and cytosolic target proteins, respectively.”

In assay [4] the test system is NF-κB p65. Nature of the assay: IHC of NF-κB p65 in kidney. The format is in vivo, mouse. The note with it: 120 mg/kg by gavage daily; week 34; increase seen in disease control. The method, then:
(§2) Female NZB/W F1 mice were purchased from the Animal Center of the National Taiwan University (Taipei, Taiwan, ROC) and, at 12 weeks of age, were divided into two groups, one of which was given normal saline and served as the disease control, while the other was given 120 mg/kg body weight of EGCG (Ryss Lab, Inc., CA, USA) (this dose is a slight modification of those used in previous in vivo studies) by gavage daily till sacrificed at 34-weeks-old. 8-Week-old NZB/W F1 female mice (prior to onset of autoantibody production) were used as normal controls. Urine samples were collected in metabolic cages every 2 weeks and urine protein levels were measured, and serum samples were used to measure serum levels of blood urea nitrogen (BUN) and creatinine (Cr) as described previously (Ka, S. M. et al. Decoy receptor 3 ameliorates an autoimmune crescentic glomerulonephritis model in mice. J Am Soc Nephrol 18:2473-2485; 2007). All animal experiments were performed upon the ethical approval of the Institutional Animal Care and Use Committee of the National Defense Medical Center, Taiwan and according to the ethical rules in the NIH Guide for the Care and Use of Laboratory Animals.

The subject of assay [5] is Nrf2. Briefly: Western blot of nuclear Nrf2 in kidney. Conditions: 120 mg/kg by gavage daily, week 34, compared to disease controls. The format is in vivo, mouse. The method, then:
as §1

Assay [6] concerns glutathione peroxidase (GPx). Nature of the assay: GPx activity in renal cortex lysates. The format is in vivo, mouse. Conditions: 120 mg/kg by gavage daily; week 34; compared with increase in disease control mice. The protocol:
as §2

Assay [7] concerns NLRP3 mRNA. Briefly: Renal NLRP3 mRNA by real-time PCR. The format is in vivo, mouse. The note with it: 120 mg/kg by gavage daily; week 34; increase seen in disease control. The method, then:
as §2
(In general: In qPCR the cycle at which signal appears reflects the starting amount.)

Assay [8] deals with NZB/W F1 lupus-prone mice. Nature of the assay: Serum BUN and creatinine (renal function) in NZB/W F1 mice. It counts as in vivo, mouse. The note with it: 120 mg/kg by gavage daily; week 34; vs disease control mice. The protocol: as §2
Assay [9] has as its system CD4+CD25+ Treg cells. Briefly: Treg cell functional assay (3H-thymidine proliferation, cells from treated mice). It counts as cell-based, mouse.

In the case of Epigallocatechin-3-gallate [EGCG], in [1], the “DHE fluorescence (in-situ ROS production in renal tissue)” value was “very low”. Besides, the “caspase-1 activation (appearance of the p20 subunit) in kidney” value in [2] is given as “significantly inhibited”. Besides, the “IgG immune complex deposition in the glomerulus” value in assay [3] was “no significant difference”. The “NF-κB p65 activity in the kidney (IHC, nuclear location)” value in assay [4] is listed as “markedly inhibited”. Also, in assay [5], the “Nrf2 translocation into the nucleus” value is given as “markedly increased”. Also, the “GPx activity in the kidney” value in assay [6] was “even larger increase”. The “levels of NLRP3 mRNA in kidney tissues” value in assay [7] is “inhibited”. Moreover, in assay [8], the “serum levels of BUN” value is on record as “significantly lower” and the “serum levels of Cr” value is given as “significantly lower”. Also, the “proliferation of Treg cells incubated alone following anti-CD3 antibody stimulation” value in assay [9] (Treg cells from EGCG-treated mice) was “did not proliferate”. Further, the “inhibition of responder T cell proliferation by added Treg cells (Treg cell activity)” value in assay [9] (Treg cells from EGCG-treated mice vs Treg cells from disease control mice, titration) is listed as “much greater”. Moreover, the “proliferation of responder T cells incubated alone following anti-CD3 antibody stimulation” value in [9] (responder T cells from EGCG-treated vs disease control mice) was “proliferated, but to an equal extent”.
